Results as given in patent US11407757B2, “Heterocycle compounds as Tyro3, Axl and MerTK (TAM) family of receptor tyrosine kinase inhibitors” (Development Center for Biotechnology, priority 2017, dated 2022).
Where two headings read alike, the source gives them in different places.

Legend:
[1] = molecular target: Axl kinase (Homo sapiens (Human), UniProt P30530); test: Axl kinase assay (AlphaScreen); assay type: biochemical; settings: activity level class
[2] = molecular target: Met kinase (Homo sapiens, UniProt P08581); test: Met kinase assay (AlphaScreen); assay type: biochemical
[3] = molecular target: Mer kinase (Homo sapiens (Human), UniProt Q12866); test: Mer kinase assay (AlphaScreen); settings: read-out: Mer kinase IC50; activity level class
[4] = system: Gas6 ligand induced AKT phosphorylation; test: Gas6 ligand induced AKT phosphorylation, western blotting in H1299 NSCLC cells; assay type: cell-based; settings: Homo sapiens, NCI-H1299, at 100 nM treatment, 100 ng/mL Gas6, read-out: inhibition activity against Gas6 ligand induced AKT phosphorylation
[5] = activity level class, read-out: Met kinase IC50

| Compound | IC50 [1] [nM] | IC50 [2] [nM] | IC50 [3] [nM] | IC50 [2, 5] [nM] | inhibition at 0.1 µM [4] [%] |
| --- | --- | --- | --- | --- | --- |
| COc1nc(Nc2ccc(CN3CCC(C)CC3)cc2)nc2[nH]cc(-c3ccc(NS(=O)(=O)c4cc(F)ccc4F)cc3)c12 [Compound 2, 2,5-difluoro-N-(4-(4-methoxy-2-((4-((4-methylpiperidin-1-yl)methyl)phenyl)amino)-7H-pyrrolo[2,3-d]pyrimidin-5-yl)phenyl)benzene-sulfonamide] | < 30 | 100 to 400 | < 30 | – | – |
| Cc1nc2ccc(-c3c[nH]c4nc(Nc5ccc(CN6CCN(C)CC6)cc5)nc(OCC5CCCO5)c34)cc2o1 (stereo not shown) [Compound 67, 5-(2-methylbenzo[d]oxazol-6-yl)-N-(4-((4-methylpiperazin-1-yl)methyl)phenyl)-4-((tetrahydrofuran-2-yl)methoxy)-7H-pyrrolo [2,3-d]pyrimidin-2-amine] | < 30 | – | > 1000 | > 1000 | > 50 |
| COCCOc1nc(Nc2ccc(CN3CCN(C)CC3)cc2)nc2[nH]cc(-c3ccc(NC(=O)c4cc(C)n(C)n4)cc3)c12 [Compound 76, N-(4-(4-(2-methoxyethoxy)-2-((4-((4-methylpiperazin-1-yl)methyl)phenyl)amino)-7H-pyrrolo[2,3-d]pyrimidin-5-yl)phenyl)-1,5-dimethyl-7H-pyrazole-3-carboxamide] | < 30 | – | > 1000 | > 1000 | > 50 |
| COCCOc1nc(Nc2ccc(CN3CCN(C)CC3)cc2)nc2[nH]cc(-c3ccc(OCc4ccccc4)cc3F)c12 [Compound 90, 5-(4-(benzyloxy)-2-fluorophenyl)-4-(2-methoxyethoxy)-N-(4-((4-methylpiperazin-1-yl)methyl)phenyl)-7H-pyrrolo[2,3-d]pyrimidin-2-amine] | – | – | > 1000 | – | – |
| COCCOc1nc(Nc2ccc(CN3CCN(C)CC3)cc2)nc2[nH]cc(-c3ccc(OCc4ccncc4)cc3F)c12 [Compound 93, 5-(2-fluoro-4-(pyridin-4-ylmethoxy)phenyl)-4-(2-methoxyethoxy)-N-(4-((4-methylpiperazin-1-yl)methyl)phenyl)-7H-pyrrolo[2,3-d]pyrimidin-2-amine] | < 30 | – | > 1000 | > 1000 | > 50 |
| COCCOc1nc(Nc2ccc(CN3CCN(C)CC3)cc2)nc2[nH]cc(-c3ccc(S(=O)(=O)N4CCC4)cc3)c12 [Compound 94, 5-(4-(azetidin-1-ylsulfonyl)phenyl)-4-(2-methoxyethoxy)-N-(4-((4-methylpiperazin-1-yl)methyl)phenyl)-7H-pyrrolo[2,3-d]pyrimidin-2-amine] | < 30 | – | > 1000 | > 1000 | – |
| COCCOc1nc(Nc2ccc(CN3CCN(C)CC3)cc2)nc2[nH]cc(-c3ccc(OCc4cccnc4)cc3F)c12 [Compound 95, 5-(2-fluoro-4-(pyridin-3-ylmethoxy)phenyl)-4-(2-methoxyethoxy)-N-(4-((4-methylpiperazin-1-yl)methyl)phenyl)-7H-pyrrolo[2,3-d]pyrimidin-2-amine] | < 30 | – | > 1000 | > 1000 | – |
| COCCOc1nc(Nc2ccc(CN3CCN(C)CC3)cc2)nc2[nH]cc(-c3ccc(O)cc3F)c12 [Compound 96, 3-fluoro-4-(4-(2-methoxyethoxy)-2-((4-((4-methylpiperazin-1-yl)methyl)phenyl)amino)-7H-pyrrolo[2,3-d]pyrimidin-5-yl)phenol] | < 30 | 100 to 400 | < 30 | – | – |
| COCCOc1nc(Nc2ccc(CN3CCN(C)CC3)cc2)nc2[nH]cc(-c3ccc(S(=O)(=O)N4CCCCC4)cc3)c12 [Compound 98, 4-(2-methoxyethoxy)-N-(4-((4-methylpiperazin-1-yl)methyl)phenyl)-5-(4-(piperidin-1-ylsulfonyl)phenyl)-7H-pyrrolo[2,3-d]pyrimidin-2-amine] | < 30 | 400 to 1000 | > 1000 | – | – |
| COCCOc1nc(Nc2ccc(CN3CCN(C)CC3)cc2)nc2[nH]cc(-c3ccc(OCc4cnccc4OC)cc3F)c12 [Compound 99, 5-(2-fluoro-4-((4-methoxypyridin-3-yl)methoxy)phenyl)-4-(2-methoxyethoxy)-N-(4-((4-methylpiperazin-1-yl)methyl)phenyl)-7H-pyrrolo[2,3-d]pyrimidin-2-amine] | – | – | > 1000 | – | – |
| COCCOc1nc(Nc2ccc(CN3CCN(C)CC3)cc2)nc2[nH]cc(-c3ccc(OCc4cncc(OC)c4)cc3F)c12 [Compound 100, 5-(2-fluoro-4-((5-methoxypyridin-3-yl)methoxy)phenyl)-4-(2-methoxyethoxy)-N-(4-((4-methylpiperazin-1-yl)methyl)phenyl)-7H-pyrrolo[2,3-d]pyrimidin-2-amine] | < 30 | – | > 1000 | > 1000 | – |
| COCCOc1nc(Nc2ccc(CN3CCN(C)CC3)cc2)nc2[nH]cc(-c3ccc(S(=O)(=O)N4CCN(C)CC4)cc3)c12 [Compound 102, 4-(2-methoxyethoxy)-N-(4-((4-methylpiperazin-1-yl)methyl)phenyl)-5-(4-((4-methylpiperazin-1-yl)sulfonyl)phenyl)-7H-pyrrolo[2,3-d]pyrimidin-2-amine] | – | – | > 1000 | – | – |
| COCCOc1nc(Nc2ccc(CN3CCC(C)CC3)cc2)nc2[nH]cc(-c3ccc(OCc4ccccn4)cc3F)c12 [Compound 109, 5-(2-fluoro-4-(pyridin-2-ylmethoxy)phenyl)-4-(2-methoxyethoxy)-N-(4-((4-methylpiperidin-1-yl)methyl)phenyl)-7H-pyrrolo[2,3-d]pyrimidin-2-amine] | < 30 | 400 to 1000 | < 30 | – | > 50 |
